Measured values from patent US10953032B2, “Cyclic dinucleotides as anticancer agents” (BRISTOL-MYERS SQUIBB COMPANY, priority 2017, dated 2021).
Like-named read-outs stand apart in the source and are kept apart here.

What was measured:
[1] = biological target: T1, STING AQ: His-TVMV-S-hSTING(155-341)-G230A-R293Q (Homo sapiens, UniProt Q86WV6, G230A/H232R/R293Q); assay: STING HTRF Binding Assay (time resolved FRET competition), STING AQ; settings: 20 nM His-tagged STING cytoplasmic domain AQ, 40 nM fluorescein-labeled cGAMP analog probe, one hour; read-out: HTRF Binding Assays EC50 (μM) STING AQ
T1 construct: STING AQ: His-TVMV-S-hSTING(155-341)-G230A-R293Q
Experimental: (§1) A time resolved FRET-based competition binding assay was used to assess test article binding to STING WT and STING AQ. His-tagged STING cytoplasmic domain (WT or AQ) at a concentration of 20 nM was incubated with 2.5 nM Tb-labeled anti-His antibody, test compound, and fluorescein-labeled cGAMP analog probe (BioLog cat. no. C195) at a concentration of 200 nM (STING WT) or 40 nM (STING AQ) in PBS containing 0.005% Tween-20 and 0.1% BSA for one hour. Fluorescence at 495 nm and 520 nm was measured using an EnVision microplate reader to quantify FRET between Tb-labeled anti-His antibody and fluorescein-labeled probe. Background was defined as the signal obtained in the absence of STING protein, and background subtracted FRET ratios were normalized to the maximum signal obtained in the absence of test compound. These values were converted to a percent inhibition. Percent inhibition was determined for test compounds at 11 concentrations. The IC50, defined as the concentration of competing test compound needed to reduce specific binding of the probe by 50%, was calculated using the 4 parameter logistic equation to fit the data

IRF3 = assay: STING THP1 Reporter Assay, IRF pathway (secreted Lucia luciferase); assay type: cell-based; settings: THP1-Dual cells, 10% human plasma, luciferase readout, 100% activation = 100 μM cGAMP, read-out: THP1 Reporter Assays EC50 (μM) IRF3
Source text: (§2) THP1-Dual™ cells were derived from the human THP-1 monocyte cell line by stable integration of two inducible reporter constructs. To this end, THP1-Dual™ cells allow the simultaneous study of the NF-κB pathway, by monitoring the activity of SEAP, and the IRF pathway by assessing the activity of a secreted luciferase (Lucia). Both reporter proteins are readily measurable in the cell culture supernatant when using QUANTI-Blue™, a SEAP detection reagent, and QUANTI-Luc™, a luciferase detection reagent.
(§3) THP 1-Dual™ cells induce the activation of NF-κB in response to STING agonists. They also trigger the IRF pathway upon stimulation with STING agonists, such as cGAMP. Here, the THP-1-Dual cells were used to assess STING binders for function on the cellular level.
(§4) Serial dilutions of compounds in DMSO were added to low volume 384 well plates at 100 nl/well using an ECHO acoustic dispenser (Labcyte, model 550) to achieve final starting concentration of 100 μM in cell suspension. THP-1 Dual™ STING reporter cells (Invivogen, Dual cells cat #THPD-nfis) were added to the plates with compounds at 15,000 cells in 10 μL per well in RPMI media (Gibco, cat #11875) containing 10% human plasma in a low volume 384-well black wall clear bottom tissue culture plate (Corning, cat #3542) for SEAP assay and low volume solid white plate (Corning, cat #3826) for luciferase assay. One column of the plate was reserved for treatment with cGAMP at 100 μM for 100% activation calculation and one column for no treatment (DMSO only) for baseline activation. Plates were then incubated in 37° C. incubator at 5% CO2 for 20 hours.
(§5) In the SEAP assay, […] 2× QuantiBlue (Invivogen, cat #Rep-qb2) is added to 384 well black plates seeded with THP1 cells and incubated at 37° C. for 2 hours. Plates were read on the Envision (Perkin Elmer) at 620 nm wavelength (OD620). In the luciferase assay, 5 μl of Quantiluc (Invivogen, Rep-qlc2) is added to white 384 well plates seeded with THP1 cells and read at 5 minutes on the Envision (Perkin Elmer) using a luminescence protocol (RLU). For both cell lines, 100% activation was determined by value (RLU) of THP-1 Dual STING cells stimulated with 100 μM cGAMP (Invivogen, cat #TLRL-NACGA23-5).

NFkB = assay: STING THP1 Reporter Assay, NF-κB pathway (SEAP); assay type: cell-based; settings: THP1-Dual cells, 10% human plasma, SEAP readout (OD620), 100% activation = 100 μM cGAMP, read-out: THP1 Reporter Assays EC50 (μM) NFkB
Source text: as §2, §3, §4, §5

[2] = biological target: T2, STING WT: His-TVMV-S-hSTING(155-341)-H232R (Homo sapiens, UniProt Q86WV6, H232R); assay: STING HTRF Binding Assay (time resolved FRET competition), STING WT; settings: 20 nM His-tagged STING cytoplasmic domain WT, 200 nM fluorescein-labeled cGAMP analog probe, one hour; read-out: HTRF Binding Assays EC50 (μM) STING WT
T2 construct: STING WT: His-TVMV-S-hSTING(155-341)-H232R
Experimental: as §1

T2 sequence (Q86WV6 with tags, fused parts or gaps H232R): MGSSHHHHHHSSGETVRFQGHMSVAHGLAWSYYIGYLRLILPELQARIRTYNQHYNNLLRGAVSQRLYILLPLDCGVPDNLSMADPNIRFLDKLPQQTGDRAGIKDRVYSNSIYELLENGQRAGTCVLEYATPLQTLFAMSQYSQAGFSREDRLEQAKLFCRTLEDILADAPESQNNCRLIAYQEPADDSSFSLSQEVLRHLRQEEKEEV
T1 sequence (Q86WV6 with tags, fused parts or gaps G230A/H232R/R293Q): as the sequence (Q86WV6 with tags, fused parts or gaps H232R) above, with G99A, R162Q counted along it

SMILES | EC50 [1] [µM] | EC50 (IRF3; 20 hours) [µM] | EC50 (NFkB; 20 hours) [µM] | EC50 [2] [µM] | EC50 (IRF3; Homo sapiens, THP-1, 20 h) [µM] | EC50 (NFkB; Homo sapiens, THP-1, 20 h) [µM]
Nc1ncnc2c1ncn2[C@@H]1O[C@@H]2COP(=O)(O)O[C@@H]3[C@H](O)[C@@H](COP(=O)(O)O[C@H]2[C@H]1F)O[C@H]3n1cnc2c(=O)[nH]c3nccn3c21 [Example 2, (1R,6R,8R,9R,10R,15R,17R,18R)-8-(6-amino-9H-purin-9-yl)-9-fluoro-3,12,18-trihydroxy-17-{4-oxo-1H,4H,5H-imidazo[2,1-b]purin-1-yl}-2,4,7,11,13,16-hexaoxa-3λ^5,12λ^5-diphosphatricyclo[13.2.1.0^6,10]octadecane-3,12-dione] | 0.002 | – | – | 0.03 | 23 | 59
Nc1ncnc2c1ncn2[C@@H]1O[C@@H]2COP(=O)(O)O[C@@H]3[C@H](O)[C@@H](COP(=O)(O)O[C@H]2[C@H]1N)O[C@H]3n1cnc2c(=O)[nH]c3nccn3c21 [Example 3, (1R,6R,8R,9R,10S,15R,17R,18R)-9-amino-8-(6-amino-9H-purin-9-yl)-3,12,18-trihydroxy-17-{4-oxo-1H,4H,5H-imidazo[2,1-b]purin-1-yl}-2,4,7,11,13,16-hexaoxa-3λ^5,12λ^5-diphosphatricyclo[13.2.1.0^6,10]octadecane-3,12-dione] | 0.3 | – | – | 1.6 | > 100 | > 100

Results, then the molecule that gave them:

EC50 [1] [µM] | EC50 (IRF3; 20 hours) [µM] | EC50 (NFkB; 20 hours) [µM] | EC50 [2] [µM] | EC50 (IRF3; Homo sapiens, THP-1, 20 h) [µM] | EC50 (NFkB; Homo sapiens, THP-1, 20 h) [µM] | SMILES
0.07 | > 100 | > 100 | 0.19 | – | – | Nc1ncnc2c1ncn2[C@@H]1O[C@@H]2COP(=O)(S)O[C@@H]3[C@H](O)[C@@H](COP(=O)(S)O[C@H]2[C@H]1F)O[C@H]3n1cnc2c(=O)[nH]c3nccn3c21 (single isomer, unassigned) [Example 1-1]
0.004 | 10 | 21 | 0.02 | – | – | Nc1ncnc2c1ncn2[C@@H]1O[C@@H]2COP(=O)(S)O[C@@H]3[C@H](O)[C@@H](COP(=O)(S)O[C@H]2[C@H]1F)O[C@H]3n1cnc2c(=O)[nH]c3nccn3c21 (single isomer, unassigned) [Example 1-2]
0.006 | 12 | 27 | 0.03 | – | – | Nc1ncnc2c1ncn2[C@@H]1O[C@@H]2COP(=O)(S)O[C@@H]3[C@H](O)[C@@H](COP(=O)(S)O[C@H]2[C@H]1F)O[C@H]3n1cnc2c(=O)[nH]c3nccn3c21 (single isomer, unassigned) [Example 1-3]
< 0.001 | 1 | 3 | 0.003 | – | – | Nc1ncnc2c1ncn2[C@@H]1O[C@@H]2COP(=O)(S)O[C@@H]3[C@H](O)[C@@H](COP(=O)(S)O[C@H]2[C@H]1F)O[C@H]3n1cnc2c(=O)[nH]c3nccn3c21 (single isomer, unassigned) [Example 1-4]
